According to patent publication US7192746B2, “α-Isomaltosyltransferase, process for producing the same and use thereof” (Kabushiki Kaisha Hayashibara Seibutsu Kagaku Kenkyujo, priority 2000, dated 2007):

Assays:
Assay type in all cases: biochemical
[1] = system: α-isomaltosyl-transferring enzyme from Arthrobacter ramosus S1; assay: Action on saccharides (substrates, TLC); design: key: −: there was found no substrate change before and after the enzymatic reaction; +: there were found both the reduction of substrate and the formation of cyclotetrasaccharide after the enzymatic reaction; conditions: 2 units/g substrate, 2% (w/v) substrate, 30° C., pH 6.0, 24 hours
Excerpt: (§1) To examine the saccharides in the supernatant, they were separated from the supernatant by silica gel thin-layer chromatography (abbreviated as “TLC” hereinafter) using, as a developer, a mixture solution of n-butanol, pyridine, and water (=6:4:1), and, as a thin-layer plate, “[…] 60”, an aluminum plate (20×20 cm) for TLC commercialized by […]. The coloration of both the separated total sugars by the sulfuric acid-methanol method and the reducing saccharides by the diphenylamine-aniline method detected a non-reducing saccharide at a position with an Rf value of about 0.31, which was positive on the former detection method but negative on the latter detection method.
(§2) It was tested whether saccharides can be used as substrates for the α-isomaltosyl-transferring enzyme. For the purpose, a solution of maltose, maltotriose, maltotetraose, maltopentaose, maltohexaose, maltoheptaose, isomaltose, isomaltotriose, panose, isomaltosylmaltose, isopanose, α,α-trehalose, kojibiose, nigerose, α,β-trehalose, cellobiose, gentibiose, maltitol, maltotriitol, lactose, sucrose, α-cyclodextrin, β-cyclodextrin, γ-cyclodextrin, soluble starch, pullulan, or dextran was prepared. To each of the above solutions was added two units/g substrate of a purified specimen of either α-isomaltosyl-transferring enzyme from Bacillus globisporus C9 obtained by the method in Experiment 4, Bacillus globisporus C11 obtained by the method in Experiment 7, Bacillus globisporus N75 obtained by the method in Experiment 11, or Arthrobacter ramosus S1 obtained by the method in Experiment 15, or a partially purified α-isomaltosyl-transferring enzyme from Arthrobacter globiformis A19 obtained by the method in Experiment 15. The resulting each solution was adjusted to give a substrate concentration of 2% (w/v) and incubated at 30° C. and pH 6.0 for 24 hours. The enzyme solutions before and after the enzymatic reactions were respectively analyzed on TLC as disclosed in Experiment 1 to confirm whether the enzymes acted on these substrates.

[2] = system: α-isomaltosyl-transferring enzyme from Arthrobacter globiformis A19; assay: Action on saccharides (substrates, TLC); design: key: −: there was found no substrate change before and after the enzymatic reaction; +: there were found both the reduction of substrate and the formation of cyclotetrasaccharide after the enzymatic reaction; conditions: partially purified enzyme, 2 units/g substrate, 2% (w/v) substrate, 30° C., pH 6.0, 24 hours
Excerpt: as §1, §2

[3] = system: α-isomaltosyl-transferring enzyme from Bacillus globisporus C11; assay: Action on saccharides (substrates, TLC); design: key: −: there was found no substrate change before and after the enzymatic reaction; +: there were found both the reduction of substrate and the formation of cyclotetrasaccharide after the enzymatic reaction; conditions: 2 units/g substrate, 2% (w/v) substrate, 30° C., pH 6.0, 24 hours
Excerpt: as §1, §2

[4] = system: α-isomaltosyl-transferring enzyme from Bacillus globisporus C9; assay: Action on saccharides (substrates, TLC); design: key: −: there was found no substrate change before and after the enzymatic reaction; +: there were found both the reduction of substrate and the formation of cyclotetrasaccharide after the enzymatic reaction; conditions: 2 units/g substrate, 2% (w/v) substrate, 30° C., pH 6.0, 24 hours
Excerpt: as §1, §2

[5] = system: α-isomaltosyl-transferring enzyme from Bacillus globisporus N75; assay: Action on saccharides (substrates, TLC); design: key: −: there was found no substrate change before and after the enzymatic reaction; +: there were found both the reduction of substrate and the formation of cyclotetrasaccharide after the enzymatic reaction; conditions: 2 units/g substrate, 2% (w/v) substrate, 30° C., pH 6.0, 24 hours
Excerpt: as §1, §2

[6] = system: α-isomaltosyl-transferring enzyme from Arthrobacter ramosus S1; assay: Specificity to transferring acceptor; design: key: −: no saccharide transferred product was formed; ±: a saccharide-transferred product formed in an amount of less than one percent to the total sugars; +: a saccharide-transferred product was formed in an amount of over one percent but below 10% to the total sugars; ++: a saccharide-transferred product was formed in an amount of over 10% to the total sugars; conditions: panose as saccharide donor, 10 units/g substrate, 3.2% (w/v), 30° C., pH 6.0, 24 hours
In short: (§3)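 Each candidate acceptor was mixed with panose donor at equal concentration, then given 10 units/g substrate of enzyme (purified, or partially purified for strain A19) at 3.2% (w/v) total saccharide. Reactions ran 24 hours at 30° C., pH 6.0, and were scored for presence or absence of transfer product.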

[7] = system: α-isomaltosyl-transferring enzyme from Arthrobacter globiformis A19; assay: Specificity to transferring acceptor; design: key: −: no saccharide transferred product was formed; ±: a saccharide-transferred product formed in an amount of less than one percent to the total sugars; +: a saccharide-transferred product was formed in an amount of over one percent but below 10% to the total sugars; ++: a saccharide-transferred product was formed in an amount of over 10% to the total sugars; conditions: partially purified enzyme, panose as saccharide donor, 10 units/g substrate, 3.2% (w/v), 30° C., pH 6.0, 24 hours
In short: as §3

[8] = system: α-isomaltosyl-transferring enzyme from Bacillus globisporus C11; assay: Specificity to transferring acceptor; design: key: −: no saccharide transferred product was formed; ±: a saccharide-transferred product formed in an amount of less than one percent to the total sugars; +: a saccharide-transferred product was formed in an amount of over one percent but below 10% to the total sugars; ++: a saccharide-transferred product was formed in an amount of over 10% to the total sugars; conditions: panose as saccharide donor, 10 units/g substrate, 3.2% (w/v), 30° C., pH 6.0, 24 hours
In short: as §3

[9] = system: α-isomaltosyl-transferring enzyme from Bacillus globisporus C9; assay: Specificity to transferring acceptor; design: key: −: no saccharide transferred product was formed; ±: a saccharide-transferred product formed in an amount of less than one percent to the total sugars; +: a saccharide-transferred product was formed in an amount of over one percent but below 10% to the total sugars; ++: a saccharide-transferred product was formed in an amount of over 10% to the total sugars; conditions: panose as saccharide donor, 10 units/g substrate, 3.2% (w/v), 30° C., pH 6.0, 24 hours
In short: as §3

[10] = system: α-isomaltosyl-transferring enzyme from Bacillus globisporus N75; assay: Specificity to transferring acceptor; design: key: −: no saccharide transferred product was formed; ±: a saccharide-transferred product formed in an amount of less than one percent to the total sugars; +: a saccharide-transferred product was formed in an amount of over one percent but below 10% to the total sugars; ++: a saccharide-transferred product was formed in an amount of over 10% to the total sugars; conditions: panose as saccharide donor, 10 units/g substrate, 3.2% (w/v), 30° C., pH 6.0, 24 hours
In short: as §3

## OC[C@H]1O[C@@H]2O[C@H]3[C@H](O)[C@@H](O)[C@@H](O[C@H]4[C@H](O)[C@@H](O)[C@@H](O[C@H]5[C@H](O)[C@@H](O)[C@@H](O[C@H]6[C@H](O)[C@@H](O)[C@@H](O[C@H]7[C@H](O)[C@@H](O)[C@@H](O[C@H]8[C@H](O)[C@@H](O)[C@@H](O[C@H]9[C@H](O)[C@@H](O)[C@@H](O[C@H]1[C@H](O)[C@H]2O)O[C@@H]9CO)O[C@@H]8CO)O[C@@H]7CO)O[C@@H]6CO)O[C@@H]5CO)O[C@@H]4CO)O[C@@H]3CO [γ-Cyclodextrin, γ-cyclodextrin]
[1]
  Enzymatic action for forming cyclotetrasaccharide, Enzyme of Strain S1: −
[2]
  Enzymatic action for forming cyclotetrasaccharide, Enzyme of Strain A19: −
[3]
  Enzymatic action for forming cyclotetrasaccharide, Enzyme of Strain C11: −
[4]
  Enzymatic action for forming cyclotetrasaccharide, Enzyme of Strain C9: −
[5]
  Enzymatic action for forming cyclotetrasaccharide, Enzyme of Strain N75: −
[6]
  Product of transferring reaction, Enzyme of Strain S1: −
[7]
  Product of transferring reaction, Enzyme of Stain A19: −
[8]
  Product of transferring reaction, Enzyme of Strain C11: −
[9]
  Product of transferring reaction, Enzyme of Strain C9: −
[10]
  Product of transferring reaction, Enzyme of Strain N75: −

## OC[C@H]1O[C@H](O[C@H]2C(O)O[C@H](CO)[C@@H](O)[C@@H]2O)[C@H](O)[C@@H](O)[C@@H]1O (some centres unmarked) [Kojibiose, kojibiose]
[1]
  Enzymatic action for forming cyclotetrasaccharide, Enzyme of Strain S1: −
[2]
  Enzymatic action for forming cyclotetrasaccharide, Enzyme of Strain A19: −
[3]
  Enzymatic action for forming cyclotetrasaccharide, Enzyme of Strain C11: −
[4]
  Enzymatic action for forming cyclotetrasaccharide, Enzyme of Strain C9: −
[5]
  Enzymatic action for forming cyclotetrasaccharide, Enzyme of Strain N75: −
[6]
  Product of transferring reaction, Enzyme of Strain S1: + (a saccharide-transferred product was formed in an amount of over one percent but below 10% to the total sugars)
[7]
  Product of transferring reaction, Enzyme of Stain A19: + (a saccharide-transferred product was formed in an amount of over one percent but below 10% to the total sugars)
[8]
  Product of transferring reaction, Enzyme of Strain C11: + (a saccharide-transferred product was formed in an amount of over one percent but below 10% to the total sugars)
[9]
  Product of transferring reaction, Enzyme of Strain C9: + (a saccharide-transferred product was formed in an amount of over one percent but below 10% to the total sugars)
[10]
  Product of transferring reaction, Enzyme of Strain N75: + (a saccharide-transferred product was formed in an amount of over one percent but below 10% to the total sugars)

## OC[C@H]1O[C@@H](OC[C@H]2OC(O)[C@H](O)[C@@H](O)[C@@H]2O)[C@H](O)[C@@H](O)[C@@H]1O (some centres unmarked) [Gentibiose, gentibiose]
[1]
  Enzymatic action for forming cyclotetrasaccharide, Enzyme of Strain S1: −
[2]
  Enzymatic action for forming cyclotetrasaccharide, Enzyme of Strain A19: −
[3]
  Enzymatic action for forming cyclotetrasaccharide, Enzyme of Strain C11: −
[4]
  Enzymatic action for forming cyclotetrasaccharide, Enzyme of Strain C9: −
[5]
  Enzymatic action for forming cyclotetrasaccharide, Enzyme of Strain N75: −
[6]
  Product of transferring reaction, Enzyme of Strain S1: + (a saccharide-transferred product was formed in an amount of over one percent but below 10% to the total sugars)
[7]
  Product of transferring reaction, Enzyme of Stain A19: + (a saccharide-transferred product was formed in an amount of over one percent but below 10% to the total sugars)
[8]
  Product of transferring reaction, Enzyme of Strain C11: ++ (a saccharide-transferred product was formed in an amount of over 10% to the total sugars)
[9]
  Product of transferring reaction, Enzyme of Strain C9: ++ (a saccharide-transferred product was formed in an amount of over 10% to the total sugars)
[10]
  Product of transferring reaction, Enzyme of Strain N75: ++ (a saccharide-transferred product was formed in an amount of over 10% to the total sugars)

## OC[C@H]1O[C@H](O[C@H]2[C@H](O)[C@@H](O)[C@H](O)O[C@@H]2CO)[C@H](O)[C@@H](O)[C@@H]1O [Maltose, maltose]
[1]
  Enzymatic action for forming cyclotetrasaccharide, Enzyme of Strain S1: −
[2]
  Enzymatic action for forming cyclotetrasaccharide, Enzyme of Strain A19: −
[3]
  Enzymatic action for forming cyclotetrasaccharide, Enzyme of Strain C11: −
[4]
  Enzymatic action for forming cyclotetrasaccharide, Enzyme of Strain C9: −
[5]
  Enzymatic action for forming cyclotetrasaccharide, Enzyme of Strain N75: −
[6]
  Product of transferring reaction, Enzyme of Strain S1: + (a saccharide-transferred product was formed in an amount of over one percent but below 10% to the total sugars)
[7]
  Product of transferring reaction, Enzyme of Stain A19: + (a saccharide-transferred product was formed in an amount of over one percent but below 10% to the total sugars)
[8]
  Product of transferring reaction, Enzyme of Strain C11: + (a saccharide-transferred product was formed in an amount of over one percent but below 10% to the total sugars)
[9]
  Product of transferring reaction, Enzyme of Strain C9: + (a saccharide-transferred product was formed in an amount of over one percent but below 10% to the total sugars)
[10]
  Product of transferring reaction, Enzyme of Strain N75: + (a saccharide-transferred product was formed in an amount of over one percent but below 10% to the total sugars)

## OC[C@H]1O[C@H](O[C@H]2[C@H](O)[C@@H](CO)OC(O)[C@@H]2O)[C@H](O)[C@@H](O)[C@@H]1O (some centres unmarked) [Nigerose, nigerose]
[1]
  Enzymatic action for forming cyclotetrasaccharide, Enzyme of Strain S1: −
[2]
  Enzymatic action for forming cyclotetrasaccharide, Enzyme of Strain A19: −
[3]
  Enzymatic action for forming cyclotetrasaccharide, Enzyme of Strain C11: −
[4]
  Enzymatic action for forming cyclotetrasaccharide, Enzyme of Strain C9: −
[5]
  Enzymatic action for forming cyclotetrasaccharide, Enzyme of Strain N75: −
[6]
  Product of transferring reaction, Enzyme of Strain S1: + (a saccharide-transferred product was formed in an amount of over one percent but below 10% to the total sugars)
[7]
  Product of transferring reaction, Enzyme of Stain A19: + (a saccharide-transferred product was formed in an amount of over one percent but below 10% to the total sugars)
[8]
  Product of transferring reaction, Enzyme of Strain C11: + (a saccharide-transferred product was formed in an amount of over one percent but below 10% to the total sugars)
[9]
  Product of transferring reaction, Enzyme of Strain C9: + (a saccharide-transferred product was formed in an amount of over one percent but below 10% to the total sugars)
[10]
  Product of transferring reaction, Enzyme of Strain N75: + (a saccharide-transferred product was formed in an amount of over one percent but below 10% to the total sugars)
